Data from publication PMC3265452 (PLoS Neglected Tropical Diseases, 2012).
Where a name gives a salt, the structure may show the parent alone.

Molecular target: AaDOP2 (Aedes aegypti, UniProt H6D5H2)
Experiment: AaDOP2 antagonist screen of the LOPAC1280 library (HEK-CRELuc-Aadop2 cells, luminescence)
Format: cell-based
Details: not given

Chain of AaDOP2 (H6D5H2 1-476): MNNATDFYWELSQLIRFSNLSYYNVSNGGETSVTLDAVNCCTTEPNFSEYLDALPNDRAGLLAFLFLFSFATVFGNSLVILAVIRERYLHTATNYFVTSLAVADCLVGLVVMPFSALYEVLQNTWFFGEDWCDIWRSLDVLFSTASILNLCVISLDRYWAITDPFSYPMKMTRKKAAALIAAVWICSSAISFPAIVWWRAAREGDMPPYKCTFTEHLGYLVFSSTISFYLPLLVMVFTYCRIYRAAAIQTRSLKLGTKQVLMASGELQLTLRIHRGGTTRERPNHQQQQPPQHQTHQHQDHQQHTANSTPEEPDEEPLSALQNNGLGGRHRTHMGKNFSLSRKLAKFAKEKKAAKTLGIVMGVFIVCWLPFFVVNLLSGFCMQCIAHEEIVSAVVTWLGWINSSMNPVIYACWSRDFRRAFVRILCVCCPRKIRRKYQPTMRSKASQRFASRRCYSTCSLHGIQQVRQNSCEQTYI

SMILES | Compound effect (percent receptor signaling in presence of test compound, relative lux units relative to the SCH23390 control)
O=C(O)c1cc[c]([Hg][Cl])cc1 [Compound 276, 4-Chloromercuribenzoic acid] | 96
CN1C(=O)CC[C@H]1c1cccnc1 [Compound 277, (-)-Cotinine] | 96
C[C@H](Cc1ccc2c(c1)OC(C(=O)O)(C(=O)O)O2)NC[C@H](O)c1cccc(Cl)c1 [Compound 278, CL 316,243] | 101
Oc1cc(-c2ccccc2)nc2nc(Cl)ccc12 [Compound 279, 7-Chloro-4-hydroxy-2-phenyl-1,8-naphthyridine] | 100
Clc1ccccc1C(c1ccccc1)(c1ccccc1)n1ccnc1 [Compound 280, Clotrimazole] | 77
CN1CCC(=C2c3ccccc3C=Cc3ccccc32)CC1 [Compound 281, Cyproheptadine hydrochloride] | 86
CO[C@@]1(NC(=O)CSCC#N)C(=O)N2C(C(=O)O)=C(CSc3nnnn3C)CS[C@@H]21 [Compound 283, Cefmetazole sodium] | 74
CCN(CC)CCCC(C)Nc1ccnc2cc(Cl)ccc12 (stereo not shown) [Compound 286, Chloroquine diphosphate] | 83
CCOC(=O)C(C)(C)Oc1ccc(Cl)cc1 [Compound 287, Clofibrate] | 74
CCCN(CCC)C(=O)Cc1c(-c2ccc(Cl)cc2)nc2c(Cl)cc(Cl)cn12 [Compound 289, CB34] | 106
N[C@@H](C(=O)N[C@@H]1C(=O)N2C(C(=O)O)=C(Cl)CS[C@H]12)c1ccccc1 [Compound 290, Cefaclor] | 87
C[N+](C)(C)CC#CCOC(=O)Nc1cccc(Cl)c1.[Cl-] [Compound 292, McN-A-343] | 121
COc1cccc(C(=O)NCCN2CCN(c3ccc(Cl)cc3)CC2)c1 [Compound 293, N-(2-[4-(4-Chlorophenyl)piperazin-1-yl]ethyl)-3-methoxybenzamide] | 95
NCCSSCCN [Compound 294, Cystamine dihydrochloride] | 84
CNc1ccc2oc(C[C@H]3O[C@@]4(CC[C@H]3C)O[C@H]([C@H](C)C(=O)c3ccc[nH]3)[C@H](C)C[C@H]4C)nc2c1C(=O)O [Compound 296, Calcimycin] | 102
C[C@@]12C(=O)OC(=O)[C@]1(C)[C@H]1CC[C@@H]2O1 [Compound 297, Cantharidin] | 96
CN(C)CCCC1(c2ccc(F)cc2)OCc2cc(C#N)ccc21 (stereo not shown) [Compound 298, Citalopram hydrobromide] | 90

Same assay, conditions: 10 µM compound, 300 nM dopamine, 2 hr; hit = compound effect <20

SMILES | Compound effect (percent receptor signaling in presence of test compound, relative lux units relative to the SCH23390 control)
Nc1ncnc2c1ncn2[C@@H]1O[C@H](C(=O)NC2CC2)[C@@H](O)[C@H]1O [Compound 282, 5'-(N-Cyclopropyl)carboxamidoadenosine] | 82%
Cl.Nc1ccn([C@@H]2O[C@H](CO)[C@@H](O)[C@@H]2O)c(=O)n1 [Compound 288, Cytosine-1-beta-D-arabinofuranoside hydrochloride] | 92%
